In PMC4900628, “Critical Evaluation of P2X7 Receptor Antagonists in Selected Seizure Models” (PLoS ONE, 2016):

What was measured:
[1] = test system: PTZ-induced generalized clonic seizures; assay: Pentylenetetrazol seizure threshold test (PTZ-T); type: in vivo; conditions: for Cases of death (within 30 min) / Latency to the first gen. Clonus / Latency to the first gen. clonus (% of control) / latency to the onset of the first clonic seizures at higher doses / Latency to the first gen. Clonus (% control): mice; for Cases of death (within 30 min): n=12; for Latency to the first gen. Clonus: mean ± SEM; for latency to the onset of the first clonic seizures at higher doses: compounds alone, PTZ 87 mg/kg s.c.
Procedure: Unrestrained mice, placed in separate full-view Plexiglas cages, were injected with the convulsant drug PTZ, a non-competitive GABAA receptor antagonist, at a dose of 87 mg/kg s.c. in the neck and the appearance of the first generalized clonus (repeated clonic seizures of the fore- and hindlimbs lasting ≥3 s with an accompanying loss of righting reflex) was recorded during individual observation for 30 min (see [69]). […] Group sizes of 12 mice were used in all experiments. Control groups, which received vehicle, were tested together with the compound-treated group on the same experimental day. The number of animals in the group with a generalized clonic seizure and the latency time to its onset were analysed for statistical significance. In the absence of seizures within 30 min, the latency was taken as 1800 s.
For the seizure tests (MES-T, PTZ-T, PTZ-kindling), BBG and TIIAS was dissolved in polyethylene glycol (PEG BioUltra, 400, Sigma-Aldrich), diluted to 20% with aqua (aqua ad iniectabilia, Braun, Melsungen, Germany). AFC was solubilized in ≥97% N,N-dimethylacetamide (DMA, Sigma-Aldrich), vortexed and diluted with 45% 2-hydroxypropyl-ß-cyclodextrin (ß-CD, Sigma-Aldrich) (final ratio of the vehicle 1:9). JNJ-47965567 was solubilized in two equivalents of 1N HCl, vortexed and sonicated (until the compound was mostly diluted) and then 30% of sulfobutylether-ß-cyclodextrin (SBE-ß-CD, Toronto Res. Chemicals, Toronto, Canada) was slowly added. The pH was adjusted with 1N NaOH (similar amount of NaOH as HCl), all with continuous stirring. PTZ was dissolved in 0.9% NaCl-solution, carbamazepine, ethosuximide and Ca-valproate were administered in a 2% (w/v) suspension of hydroxyethylcellulose. The drug solutions or suspensions were prepared immediately before use; all doses refer to the salts. Animals in the control group received equivalent volumes of the vehicle (in mice always 10 ml/kg, in rats 1 ml/kg [JNJ], 3 ml/kg [AFC] or 4 ml/kg [BBG, TIIAS], depending on the solubility of the different compounds). Doses and peak time effects were selected on the basis of effective doses from corresponding in vivo studies in the literature: BBG (e.g.), tanshinone IIA (e.g.) and from manufacturer’s experimental data: AFC, JNJ (see, [80]).
Data were analysed using SigmaPlot (vers. 12.0, Systat Software, Erkrath, Germany) and SPSS (IBM SPSS Statistics 20, Ehningen, Germany), respectively. Results are expressed as mean ± SEM. In the fluorometric Ca^2+ assays, concentration-response curves were fitted by using a 4-parameter logistic function (Hill slope, Emin, Emax, IC50). […] In the MES-T, the current intensity inducing tonic hindlimb extensions in 50% of the mice (CC50 values with confidence limits for 95% probability) and the statistical significance was calculated using Probit analysis (SPSS). In the case of multiple comparisons between different groups α-correction was performed so that only differences with a P value of < 0.01 were considered significant. In the PTZ-T, the number of animals in the group with clonic seizures and the latency time were analysed using Fisher's exact probability test and the Mann-Whitney rank sum test, respectively. For multiple comparisons of the latency time a one-way ANOVA with the Holm-Sidak post hoc test was used. The influence of AFC on the plasma and brain concentrations of the antiepileptic drugs was statistical compared using the same procedure. In the PTZ-kindling model, the mean seizure stage within a group was calculated in relation to the number of PTZ-injections. Statistical comparison between vehicle- and compound-treated groups in this model was performed with two-way repeated measures ANOVA, followed by the Holm-Sidak post hoc test. The mean number of PTZ-injections needed to produce the first generalized seizure (≥ stage 3 convulsions) in the vehicle- versus compound-treated groups was statistically compared using a Mann-Whitney rank sum test.

PTZ-induced kindling = PTZ-induced kindling development; type: in vivo, rats; conditions: for mean seizure stages after 8-day treatment-free interval (21st-25th PTZ-injection, vehicle only): rats formerly treated with TIIAS 30, BBG 50, AFC 30 mg/kg i.p. or JNJ 15 mg/kg s.c.; for mean number of PTZ-injections needed to produce the first generalized seizure (≥ stage 3) vs vehicle / effect on PTZ-kindling development (mean seizure stages): rats; for mean number of PTZ-injections needed to produce the first generalized seizure (≥ stage 3) vs vehicle: TIIAS 30, BBG 50, AFC 30 mg/kg i.p., JNJ 15 mg/kg s.c.; for effect on PTZ-kindling development (mean seizure stages): TIIAS 30 and BBG 50 mg/kg i.p. 45 min, AFC 30 mg/kg i.p. 45 min, JNJ 15 mg/kg s.c. 30 min before each PTZ 35 mg/kg i.p., every 48 h, 20 injections
Procedure: For PTZ-kindling, the initial sub-convulsive dose of PTZ (35 mg/kg) was injected i.p. once every 48 h (on Monday, Wednesday, and Friday, three times a week). After vehicle or vehicle/compound pre-treatment, PTZ was injected and the rats were individually observed for 30 min. Behavioural seizure responses were scored according to a defined graduation from stage 0 to stage 5. […] Rats received 20 successive PTZ-kindling stimulations. After an 8-day treatment-free interval, the animals were re-tested with PTZ (21st-25th injection) and vehicle pre-treatment without the compounds. […] Additional care was taken the hours following generalized tonic-clonic seizures and status epilepticus by providing the animals with soft food pellets and tap water if required. All efforts were made to minimize suffering. […] Chemicals, Toronto, Canada) was slowly added. The pH was adjusted with 1N NaOH (similar amount of NaOH as HCl), all with continuous stirring. […] The drug solutions or suspensions were prepared immediately before use; all doses refer to the salts. Animals in the control group received equivalent volumes of the vehicle (in mice always 10 ml/kg, in rats 1 ml/kg [JNJ], 3 ml/kg [AFC] or 4 ml/kg [BBG, TIIAS], depending on the solubility of the different compounds). Doses and peak time effects were selected on the basis of effective doses from corresponding in vivo studies in the literature: BBG (e.g.), tanshinone IIA (e.g.) and from manufacturer's experimental data: AFC, JNJ (see, [80]). Data were analysed using SigmaPlot (vers. 12.0, Systat Software, Erkrath, Germany) and SPSS (IBM SPSS Statistics 20, […], Germany), respectively. Results are expressed as mean ± SEM. […] In the MES-T, the current intensity inducing tonic hindlimb extensions in 50% of the mice (CC50 values with confidence limits for 95% probability) and the statistical significance was calculated using Probit analysis (SPSS). […] In the PTZ-T, the number of animals in the group with clonic seizures and the latency time were analysed using Fisher's exact probability test and the Mann-Whitney rank sum test, respectively. For multiple comparisons of the latency time a one-way ANOVA with the Holm-Sidak post hoc test was used. The influence of AFC on the plasma and brain concentrations of the antiepileptic drugs was statistical compared using the same procedure. In the PTZ-kindling model, the mean seizure stage within a group was calculated in relation to the number of PTZ-injections. Statistical comparison between vehicle- and compound-treated groups in this model was performed with two-way repeated measures ANOVA, followed by the Holm-Sidak post hoc test. The mean number of PTZ-injections needed to produce the first generalized seizure (≥ stage 3 convulsions) in the vehicle- versus compound-treated groups was statistically compared using a Mann-Whitney rank sum test. In fully kindled rats, the calculated mean seizure stage within a group after vehicle- and compound-treatment were compared using a paired t-test. P < 0.05 was the accepted minimum level of significance.

[2] = 50 mg/kg i.p. 45 min before PTZ 87 mg/kg s.c.
[3] = 15 mg/kg i.p. 30 min before PTZ 87 mg/kg s.c.
[4] = 30 mg/kg i.p. 30 min before PTZ 87 mg/kg s.c.
[5] = series JNJ-47965567 15 mg/kg and/or ethosuximide 100 mg/kg, all i.p. 30 min before PTZ 87 mg/kg s.c.
[6] = series JNJ-47965567 30 mg/kg and/or ethosuximide 100 mg/kg, all i.p. 30 min before PTZ 87 mg/kg s.c.
[7] = 30 mg/kg i.p. 45 min before PTZ 87 mg/kg s.c.

Structure (SMILES): CCOc1ccc(Nc2ccc(/C(=C3C=C/C(=[N+](/CC)Cc4cccc(S(=O)(=O)[O-])c4)C=C/3C)c3ccc(N(CC)Cc4cccc(S(=O)(=O)O)c4)cc3C)cc2)cc1 [Brilliant Blue G]
- # of mice/ with seizure [1, 2]: 12/10
- Cases of death (within 30 min) [1, 2]: 2
- Latency to the first gen. Clonus ([1]; 50 mg/kg i.p. 45 min before PTZ 87 mg/kg s.c., P < 0.05): 13.91 ± 2.38 min
- Latency to the first gen. clonus (% of control) ([1]; 50 mg/kg i.p. 45 min before PTZ 87 mg/kg s.c., vehicle 6.77 ± 2.23 min): 205.5 ± 35.2%
- latency to the onset of the first clonic seizures at higher doses [1]: tended to increase the latency
- mean seizure stages after 8-day treatment-free interval (21st-25th PTZ-injection, vehicle only) (PTZ-induced kindling): no differences of the mean seizure stages
- mean number of PTZ-injections needed to produce the first generalized seizure (≥ stage 3) vs vehicle (PTZ-induced kindling): required significantly more PTZ-injections
- effect on PTZ-kindling development (mean seizure stages) (PTZ-induced kindling): moderate, yet significant retarding effect on kindling development

Structure (SMILES): O=C(NCC1(N2CCN(c3ccccc3)CC2)CCOCC1)c1cccnc1Sc1ccccc1 [JNJ-47965567, N-[[4-(4-phenyl-piperazin-1-yl)tetrahydro-2H-pyran-4-yl]-methyl]-2-(phenyl-thio) nicotinamide]
- # of mice/ with seizure [1, 3]: 12/12
- # of mice/ with seizure [1, 4]: 12/10
- Cases of death (within 30 min) [1, 3]: 2
- Cases of death (within 30 min) [1, 4]: 1
- Cases of death (within 30 min) ([1]; series JNJ-47965567 15 mg/kg and/or ethosuximide 100 mg/kg i.p. 30 min before PTZ 87 mg/kg s.c.): 3
- Cases of death (within 30 min) ([1]; series JNJ-47965567 30 mg/kg and/or ethosuximide 100 mg/kg i.p. 30 min before PTZ 87 mg/kg s.c.): 1
- Latency to the first gen. Clonus [1, 3]: 7.31 ± 2.19 min
- Latency to the first gen. clonus (% of control) ([1]; 15 mg/kg i.p. 30 min before PTZ 87 mg/kg s.c., vehicle 6.94 ± 1.31 min): 105.3 ± 31.6%
- Latency to the first gen. Clonus [1, 4]: 13.66 ± 2.94 min
- Latency to the first gen. clonus (% of control) ([1]; 30 mg/kg i.p. 30 min before PTZ 87 mg/kg s.c., vehicle 7.13 ± 1.49 min): 191.6 ± 41.2%
- latency to the onset of the first clonic seizures at higher doses [1]: tended to increase the latency
- Latency to the first gen. Clonus (% control) ([1]; series JNJ-47965567 15 mg/kg and/or ethosuximide 100 mg/kg i.p. 30 min before PTZ, control 4.74 ± 0.64 min): 109.4 ± 25.1%
- Latency to the first gen. Clonus [1, 5]: 5.19 ± 1.19 min
- Latency to the first gen. Clonus (% control) ([1]; series JNJ-47965567 30 mg/kg and/or ethosuximide 100 mg/kg i.p. 30 min before PTZ, control 6.14 ± 1.34 min): 153.4 ± 47.1%
- Latency to the first gen. Clonus [1, 6]: 9.42 ± 2.89 min
- # of mice/ with seizures [1, 5]: 12/12
- # of mice/ with seizures [1, 6]: 12/10
- mean seizure stages after 8-day treatment-free interval (21st-25th PTZ-injection, vehicle only) (PTZ-induced kindling): persisted after compound treatment ceased
- mean number of PTZ-injections needed to produce the first generalized seizure (≥ stage 3) vs vehicle (PTZ-induced kindling): required significantly more PTZ-injections
- effect on PTZ-kindling development (mean seizure stages) (PTZ-induced kindling): significantly reduced the PTZ-kindling development

Structure (SMILES): Cc1c(S(=O)(=O)[O-])oc2c1C(=O)C(=O)c1c-2ccc2c1CCCC2(C)C.[Na+] [Tanshinone TIIAS, tanshinone IIS sulfonic sodium]
- # of mice/ with seizure [1, 7]: 12/11
- Cases of death (within 30 min) [1, 7]: 0
- Latency to the first gen. Clonus [1, 7]: 10.08 ± 2.64 min
- Latency to the first gen. clonus (% of control) ([1]; 30 mg/kg i.p. 45 min before PTZ 87 mg/kg s.c., vehicle 5.00 ± 1.04 min): 201.6 ± 52.8%
- latency to the onset of the first clonic seizures at higher doses [1]: tended to increase the latency
- mean seizure stages after 8-day treatment-free interval (21st-25th PTZ-injection, vehicle only) (PTZ-induced kindling): no differences of the mean seizure stages
- mean number of PTZ-injections needed to produce the first generalized seizure (≥ stage 3) vs vehicle (PTZ-induced kindling): required significantly more PTZ-injections
- effect on PTZ-kindling development (mean seizure stages) (PTZ-induced kindling): moderate, yet significant retarding effect on kindling development
